Measurements: ChEMBL document CHEMBL1137219, “Carbonic anhydrase inhibitors: the first on-resin screening of a 4-sulfamoylphenylthiourea library” (J Med Chem, 2004)

How the values were obtained:
Carbonic anhydrase 1 = Carbonic anhydrase 1 (Homo sapiens, UniProt P00915)
Description: Inhibitory activity against human Carbonic anhydrase I

Carbonic anhydrase 2 = Carbonic anhydrase 2 (Homo sapiens, UniProt P00918)
Description: Inhibitory activity against human Carbonic anhydrase II

Chain of Carbonic anhydrase 1 (P00915 whole entry): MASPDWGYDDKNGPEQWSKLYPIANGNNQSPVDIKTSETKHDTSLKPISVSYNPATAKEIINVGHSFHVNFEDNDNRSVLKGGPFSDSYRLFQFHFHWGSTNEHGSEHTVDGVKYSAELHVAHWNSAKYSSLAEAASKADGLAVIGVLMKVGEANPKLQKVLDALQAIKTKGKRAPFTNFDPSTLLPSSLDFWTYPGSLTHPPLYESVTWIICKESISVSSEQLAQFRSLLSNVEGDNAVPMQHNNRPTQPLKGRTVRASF

CC[C@H](C)[C@H](/N=C(\S)Nc1ccc(S(N)(=O)=O)cc1)C(=O)OCC(=O)NC
Ki (Carbonic anhydrase 1): 25 nM | Ki (Carbonic anhydrase 2): 5 nM

CNC(=O)COC(=O)[C@H](CCC(N)=O)/N=C(\S)Nc1ccc(S(N)(=O)=O)cc1
Ki (Carbonic anhydrase 1): 53 nM | Ki (Carbonic anhydrase 2): 11 nM

NS(=O)(=O)c1ccc(NC(=S)N[C@@H](Cc2c[nH]c3ccccc23)C(=O)O)cc1
Ki (Carbonic anhydrase 1): 47 nM | Ki (Carbonic anhydrase 2): 11 nM

CC(C)C[C@H](NC(=S)Nc1ccc(S(N)(=O)=O)cc1)C(=O)O
Ki (Carbonic anhydrase 1): 21 nM | Ki (Carbonic anhydrase 2): 5 nM

CNC(=O)COC(=O)[C@H](Cc1c[nH]c2ccccc12)NC(=S)Nc1ccc(S(N)(=O)=O)cc1
Ki (Carbonic anhydrase 1): 64 nM | Ki (Carbonic anhydrase 2): 20 nM

NC(=O)CC[C@H](NC(=S)Nc1ccc(S(N)(=O)=O)cc1)C(=O)O
Ki (Carbonic anhydrase 1): 40 nM | Ki (Carbonic anhydrase 2): 9 nM

C[C@H](NC(=S)Nc1ccc(S(N)(=O)=O)cc1)C(=O)O
Ki (Carbonic anhydrase 1): 54 nM | Ki (Carbonic anhydrase 2): 12 nM

CNC(=O)COC(=O)[C@@H](/N=C(\S)Nc1ccc(S(N)(=O)=O)cc1)C(C)C
Ki (Carbonic anhydrase 1): 31 nM | Ki (Carbonic anhydrase 2): 5 nM

CSCC[C@H](/N=C(\S)Nc1ccc(S(N)(=O)=O)cc1)C(=O)O
Ki (Carbonic anhydrase 1): 27 nM | Ki (Carbonic anhydrase 2): 4 nM

NS(=O)(=O)c1ccc(NC(=S)N2CCC[C@H]2C(=O)O)cc1
Ki (Carbonic anhydrase 1): 110 nM | Ki (Carbonic anhydrase 2): 25 nM

CNC(=O)COC(=O)[C@H](CCSC)NC(=S)Nc1ccc(S(N)(=O)=O)cc1
Ki (Carbonic anhydrase 1): 31 nM | Ki (Carbonic anhydrase 2): 5 nM

NC(=O)C[C@H](/N=C(\S)Nc1ccc(S(N)(=O)=O)cc1)C(=O)O
Ki (Carbonic anhydrase 1): 27 nM | Ki (Carbonic anhydrase 2): 6 nM

CC[C@H](C)[C@H](NC(=S)Nc1ccc(S(N)(=O)=O)cc1)C(=O)O
Ki (Carbonic anhydrase 1): 22 nM | Ki (Carbonic anhydrase 2): 4 nM

CC(C)[C@H](NC(=S)Nc1ccc(S(N)(=O)=O)cc1)C(=O)O
Ki (Carbonic anhydrase 1): 23 nM | Ki (Carbonic anhydrase 2): 5 nM

CNC(=O)COc1ccc(COC(=O)[C@H](C)NC(=S)Nc2ccc(S(N)(=O)=O)cc2)cc1
Ki (Carbonic anhydrase 1): 58 nM | Ki (Carbonic anhydrase 2): 16 nM

CNC(=O)COC(=O)[C@H](Cc1ccccc1)NC(=S)Nc1ccc(S(N)(=O)=O)cc1
Ki (Carbonic anhydrase 1): 42 nM | Ki (Carbonic anhydrase 2): 8 nM

CNC(=O)COC(=O)[C@@H]1CCCN1/C(S)=N\c1ccc(S(N)(=O)=O)cc1
Ki (Carbonic anhydrase 1): 197 nM | Ki (Carbonic anhydrase 2): 46 nM

NS(=O)(=O)c1ccc(N/C(S)=N/[C@@H](Cc2ccccc2)C(=O)O)cc1
Ki (Carbonic anhydrase 1): 30 nM | Ki (Carbonic anhydrase 2): 6 nM

CNC(=O)COC(=O)[C@H](CC(N)=O)/N=C(\S)Nc1ccc(S(N)(=O)=O)cc1
Ki (Carbonic anhydrase 1): 29 nM | Ki (Carbonic anhydrase 2): 4 nM

CNC(=O)COC(=O)[C@H](CC(C)C)/N=C(\S)Nc1ccc(S(N)(=O)=O)cc1
Ki (Carbonic anhydrase 1): 23 nM | Ki (Carbonic anhydrase 2): 7 nM
